From patent US10561638B2, “Methods for treating dependence” (Biotie Therapies, Inc., priority 2007, dated 2020)

Tests used:
[1] = in vivo
Experimental: The pharmacokinetics of nepicastat after a single 40 mg dose was compared in men and women.

[2] = test system: left ventricular [3H] CGP-12177 binding sites; test: [3H] CGP-12177 saturation binding in left ventricle membranes of treated dogs; set-up: species or system beagle dogs; conditions: 10 mg/kg/day for 4.5 days
Experimental: Ventricles were homogenized in 50 mM Tris-HCl, 5 mM Na2EDTA buffer (pH 7.4 at 4° C.) using a Polytron P-10 tissue disrupter (setting 10, 2×15 second bursts). Homogenates were centrifuged at 500×g for 10 minutes and the supernatants stored on ice. The pellets were washed by resuspension and centrifugation at 500×g and the supernatants combined. The combined supernatants were centrifuged at 48,000×g for 20 minutes. The pellets were washed by resuspension and centrifugation once in homogenizing buffer and twice in 50 mM Tris-HCl, 0.5 mM EDTA buffer (pH 7.4 at 4° C.). Membranes were stored at −70° C. until required. Saturation experiments were conducted using [^3H] CGP-12177 in buffer containing 50 mM Tris-HCl, 0.5 mM EDTA (pH 7.4 at 32° C.). Non-specific binding was defined by 10 μM isoproterenol. Total bound, non-specific bound and total count tubes were set up for eight concentrations of [^3H] […] Aquasol scintillation fluid was added to each vial and radioactivity determined by liquid scintillation counting. Saturation binding isotherms were analyzed after first converting total ligand concentrations to free ligand concentrations (total−bound=free). […] Tissue catecholamine levels were analyzed by comparing nepicastat-treated groups with the placebo (control) treated groups. […] Additionally, a linear orthogonal contrast was calculated for all three doses within the context of a one-way ANOVA. […]

[3] = test system: short-term or working memory in rats; test: Delayed-matching-to-position (DMTP) test; assay type: in vivo, Sprague Dawley rats
Experimental: In the present DMTP study, rats were trained to remember the position of a lever across a scheduled delay of either 0, 8, 16 or 32 s in order to earn food reward. […] Another group of rats received only vehicle treatment throughout the experiment. […] The dependent measures in the present study included percentage of correct choices, the latency to make choice responses and the number of trials which the animals were able to complete during the 70 min test sessions. Changes in the former measure may indicate changes in memory and/or attentional function whereas changes in the latter two measures may be indicative of other non-cognitive effects of the drugs. Matching to position training began next. This and all subsequent training was conducted with the partitions fitted into the operant boxes. The sessions were initially 50 minutes long. Rats were placed in the operant box and the session began when the houselight was illuminated. Following a 30 s intertrial interval (ITI), one of the two levers (the sample lever) was inserted into the chamber. The lever remained inserted into the chamber until a lever-press response occurred. […] As soon as the magazine flap was pressed the magazine light was extinguished and both levers were inserted. […] The magazine light remained on until the flap was pressed. […] A 30 s ITI was initiated before the commencement of a new trial. The lever inserted as the sample lever was semi-randomly determined such that the right and lefthand levers were presented as the sample lever 8 times in a block of 16 trials. Following 24 sessions, the animals were performing the matching to position task with a high degree of accuracy. On Session 25 a variable delay interval was interposed between the depression of the sample lever and presentation of the levers on the choice trial. After a response to the sample lever, the choice levers were inserted following the first flap press occurring after either a 0 s (immediate), 4, 8 or 16 s delay. The order of the four types of trials (0, 4, 8 or 16 s delay) was semi-randomly determined with the constraint that in a 16 trial block, each delay occurred 4 times; twice on a left trial and twice on a right trial. […] The same trial was reinstated following the end of the ITI. From Session 25 onward the time-out period following incorrect choices was omitted and the session length was increased to 70 minutes. […] Due to poor performance at the 64 s delay, however, this delay was not used in any further sessions. On Session 59, delays of 0, 8, 16 and 32 s were used. These delays were used in all subsequent sessions. Only 51 of the 56 rats completed more than 24 trials (correction plus non-correction) during Session 59. These rats were selected and semi-randomly assigned to the following 7 groups such that the groups were matched on performance (percent correct, response latency and number of trials completed): […] Thus, the drug treatments administered to the seven groups during the 11 consecutive days of the present experiment were: The data collected and analyzed in the present DMTP study include 1) the percentage of correct responses; 2) the latency between performance of a response to the sample lever and the performance of the choice response and 3) the total number of correction and non-correction trials completed. The former two dependent measures were collected for the non-correction trials only. […] Two-way analysis of variance (ANOVA) with drug treatment as the between-subjects factor and delay (0, 8, 16 or 32 s) as the within-subjects factor was used to analyze percentage of correct choices and response latency. These analyses were conducted separately for each block of data. Significant interactions were followed by a one-way ANOVA which was conducted at each delay. A significant main effect from a one-way ANOVA was followed by a two-tailed Dunnett's t-test. One-way ANOVA followed by a post hoc Dunnett's test, when appropriate, was used to analyze the mean number of trials completed. […]

## Cl.NCc1c[nH]c(=S)n1[C@H]1CCc2c(F)cc(F)cc2C1 [nepicastat, (S)-5-Aminomethyl-1-(5,7-difluoro-1,2,3,4-tetrahydronaphth-2-yl)-2,3-dihydro-2-thioxo-1H-imidazole hydrochloride]
[1]; both, human, 40 mg
  AUC, greater in women than in men: approximately 43%
  Cmax, greater in women than in men: approximately 23%
[1]; human
  Tmax for the radioactivity in plasma: 1 to 2 h
  terminal T1/2 for total radioactivity in plasma: ~100 h
[1]
  Cmax or AUC, fast vs slow acetylator phenotype: No significant differences
  T½, women vs men: longer in women than in men
  accumulation with multiple dosing: no significant accumulation
[2]
  left ventricular binding, treated vs vehicle group: no difference
[3]; Block 2
  all dependent measures: no significant effects on any of the dependent measures
[3]; Block 4, 32 s delay, nepicastat 10.0 mg/kg
  latency to perform the choice response vs vehicle: longer latency to perform the choice response
[3]; Block 5
  response latency, number of trials completed: did not significantly affect
[3]; Block 5, 10 and 30 mg/kg at the 32 s delay
  choice accuracy: marked dose- and delay-dependent impairment in choice accuracy
[3]; administered alone, 10 days
  improvement of DMTP performance: does not appear to induce memory enhancing effects
[3]; day 11 scopolamine test
  reversal of the effects of scopolamine: did not appear to reverse the effects of scopolamine
[3]; rat, in vivo
  days of dosing after which memory-disrupting effects are apparent: 8 days
